Data from paper PMC10974945, “Targeting MutT Homolog 1 (MTH1) for Breast Cancer Suppression by Using a Novel MTH1 Inhibitor MA−24 with Tumor-Selective Toxicity” (Pharmaceuticals, 2024).
Read-outs that look alike come from different tables or passages of the source.

Assays:
[1] = test system: CHO cells; assay: MTT cell viability/proliferation assay, CHO (immortalized); type: cell-based; conditions: Cricetulus griseus, 48 h, read-out: IC50 on CHO proliferation (mean ± SD)
Method: (§1) Human breast cancer cell lines (MCF-7: ER+, PR+, HER2-, EGFR+, MB-MDA-MB-231: […] All cells were cultured in suitable medium supplemented with 10% fetal bovine serum (FBS; […] Biotechnology Co., Ltd., Hangzhou, China), 100 U/mL penicillin, and 100 μg/mL streptomycin (Invitrogen, Carlsbad, CA, USA) at 37 °C in 5% CO2. MCF-7, MB-MDA-MB-231, HEK-293F, and HUVEC were grown in Dulbecco's modified Eagle's medium (DMEM; […] Subsequently, cells were treated with compound or vehicle (maximum 0.3% DMSO). After 48 h, cells were treated with MTT; the absorbance of the assay plate was read at 490 nm using a Multiskan GO Microplate Spectrophotometer (Thermo Fisher Scientific, Waltham, MA, USA).

[2] = test system: MDA-MB-231 cells; assay: MTT cell viability/proliferation assay, MDA-MB-231; type: cell-based; conditions: Homo sapiens, read-out: IC50 on MDA-MB-231 proliferation (mean ± SD)
Method: as §1

[3] = target: T1, MTH1 (Homo sapiens, UniProt P36639); assay: Target engagement by cellular thermal shift assay (CETSA) in MCF−7 cells; type: cell-based; conditions: 50 μM, 4.5 h, 42 to 75 °C
Method: MCF−7 cells cultured in 6-well plates for 24 h were exposed to vehicle (0.5% DMSO) or 50 μM TH287 or MA−24 for 4.5 h. After trypsinization cells were detached, spun down and resuspended in PBS. Eight equational cells were heated for 3 min from 42 to 75 °C, and then lysed using RIPA lysis buffer. Western blot analysis was used to analyze the amounts of stabilized MTH1 using the MTH1 antibody.

[4] = test system: MCF−7 cells; assay: Western blot of apoptosis and p38 MAPK proteins in MCF−7 cells; type: cell-based, human; conditions: for expression of p38: high concentrations
Source text: Total protein was obtained using RIPA lysis buffer (Beyotime Biotechnology, Shanghai, China) supplemented with phenylmethanesulfonyl fluoride (Beyotime Biotechnology, Shanghai, China), separated by SDS-PAGE, and transferred to the PVDF membrane by electroblotting (Bio-Rad, Hercules, CA, USA) followed by blocking with 5% milk in TBST. MTH1 antibody (Cat.No.ab200832, Abcam, Eugene, OR, USA), β-actin antibody (Cat.No.ab8227; Abcam, Eugene, OR, USA), ccaspae-3 antibody (Cat.No.14220, CST, Boston, USA), cleaved caspase-3 antibody (Asp175) (Cat.No.9664, CST, Boston, MA, USA), cleaved PARP antibody (Asp214) (Cat.No.95696, CST, Boston, MA, USA), p38 (Cat.No.9212, CST, Boston, MA, USA), and phospho-p38 MAPK (Thr180/Tyr182) (Cat.No.9211, CST, Boston, MA, USA) were used at a dilution of 1:1000–1:5000. Upon addition of primary and HRP-conjugated secondary antibodies, blots were detected using an ECL substrate (Thermo Fisher Scientific, Waltham, MA, USA) and the Tanon 5200 Chemiluminescent Imaging System (Tanon, Shanghai, China).

[5] = test system: HUVEC cells; assay: MTT cell viability/proliferation assay, HUVEC (immortalized); type: cell-based; conditions: Homo sapiens, 48 h, read-out: IC50 on HUVEC proliferation (mean ± SD)
Method: as §1

[6] = parameters: method as in PMID 24695224; conditions: in vitro studies; cited from earlier work
[7] = test system: HEK-293F cells; assay: MTT cell viability/proliferation assay, HEK-293F (immortalized); type: cell-based; conditions: HEK293F, 48 h, read-out: IC50 on HEK-293F proliferation (mean ± SD)
Method: as §1

[8] = test system: MCF−7 cells; assay: MTT cell viability/proliferation assay, MCF−7; type: cell-based; conditions: Homo sapiens; for IC50: read-out: IC50 against MCF−7 cell proliferation (mean ± SD); for inhibition at 200 µM: compound concentration 200 μM, read-out: Inhibition (%) (Mean ± SD) of MCF−7 cell proliferation
Method: as §1

[9] = target: T1, MTH1; assay: Kinetic analysis of MTH1 inhibition (reciprocal plot); type: biochemical; conditions: consistent 1/Vmax
[10] = parameters: method as in PMID 25459754; conditions: intraperitoneal injection, cited from earlier work
[11] = test system: 4T1 cells; assay: MTT cell viability/proliferation assay, 4T1; type: cell-based, murine; conditions: Mus musculus, read-out: IC50 on 4T1 proliferation (mean ± SD)
Method: as §1

[12] = target: T1, MTH1; assay: MTH1 enzymatic inhibition, malachite green colorimetric assay; type: biochemical
Method: MTH1, inorganic pyrophosphatase, and dGTP (Thermo Fisher Scientific, Waltham, MA, USA) were diluted in assay buffer containing 100 mM Tris-acetate at pH 8.0, 40 mM NaCl, 10 mM Mg-acetate, 0.005% Tween 20, and 1 mM DTT. Briefly, serial dilutions of compounds were dissolved in assay buffer; meanwhile, MTH1 was diluted to 4 μg/mL, and then these two solutions were mixed and filled with buffer to 186 µL. After 15 min incubation at 25 °C, 10 µL dGTP (final concentration […]) and 4 µL inorganic pyrophosphatase (final concentration 0.2 U/mL) were added to start the reaction. The reaction mixture was incubated with shaking for 45 min at 25°C. Finally, 50 µL of malachite green assay reagent was added and incubated with shaking for 15 min at 25 °C. The absorbance of the assay plate was read at 630 nm using a Multiskan GO Microplate Spectrophotometer (Thermo Fisher Scientific, Waltham, MA, USA) and IC50 values were calculated using GraphPad Prism 9.5.1 Software.

[13] = test system: 4T1 breast cancer tumor; assay: 4T1 breast cancer tumor model in Balb/c mice; conditions: for body weight compared to the control group / Ki67 expression / tumor cell proliferation in tumors: MA−24 60 mg/kg; for body weight compared to the control group: TH287 200 mg/kg i.p. every three days
Method: All animal experiments were carried out in accordance with a protocol approved by the Animal Ethics Committee of the China Pharmaceutical University. Female BALB/C mice were given food and water ad libitum. Approximately 7-week-old mice were injected subcutaneously with 2 × 10^5 4T1 cells in the left flank. When the mean tumor size reached 30~50 mm^3, vehicle (composed with 1% DMSO, 10% ethanol, 10% Chremophor EL, and 10% Tween-80, diluted with PBS), MTH1 inhibitor (MA−24 at 60 mg/kg or TH287 at 200 mg/kg), or 5-FU (30 mg/kg) was administered intraperitoneally every three days. Tumor size and body weights were measured twice weekly starting on the first day of treatment. Moreover, to minimize animal suffering, euthanasia by cervical dislocation was performed when the maximum diameter of the tumors exceeded 1 cm.

[14] = test system: MCF−7 cells; assay: Alkaline comet assay in MCF−7 cells; type: cell-based, human; conditions: 10 μM, 2 days
Method: MCF−7 cells (300,000 cells) were plated in 6-well plates and incubated for 24 h at 37 °C and 5% CO2. Subsequently, cells were treated with a compound (10 μM MA−24 and TH287) or vehicle (0.1% DMSO) for 2 days or with 150 μM for 10 min on ice. Cells were harvested as above. After washing twice with PBS, cells were re-suspended in PBS. Then, the 30 μL cell suspension was mixed with 150 µL 1.2% low-melting agarose that was maintained at 37 °C. The mixture was layered onto pre-warmed (37 °C) agarose-coated glass slides. The slides were kept on ice for 10 min and incubated in lysis buffer (10 mM Tris pH 7.7, 2.5 M NaCl, 0.1 M EDTA, 1% DMSO, and 1% Triton X-100) at 4 °C overnight in the dark. Slides were washed twice with enzyme reaction buffer (40 mM HEPES pH 8.0, 0.1 M KCl, 0.5 mM EDTA, and 0.2 mg/mL BSA) and incubated with Fpg […] (8 U/mL, New England Biolabs, Shanghai, China) at 37 °C for 45 min. Slides were washed once with enzyme reaction buffer and incubated in alkaline electrophoresis buffer (50 mM NaOH, 1 mM EDTA, and 1% DMSO) for 20 min. […] Images were acquired with a fluorescence microscope (Olympus Corporation, Tokyo, Japan) and quantified using Comet Score software, Version 1.5. At least 100 comets per sample were analyzed. Tail moment is calculated as the percentage of DNA in the tail multiplied by the tail length.

[15] = malachite green staining assay, dGTP substrate, read-out: IC50 to MTH1 (mean ± SD)
[16] = 5-FU 30 mg/kg i.p. every three days, 4T1 tumor

With `CNc1cc(-c2cccc(Cl)c2Cl)nc(N)n1` [TH287, reference compound] the IC50 [1] was no less than 25 µM, the IC50 ([2]; MDA-MB-231, 48 h) was 1.92 ± 0.34 µM and the “thermal stabilization of MTH1 (CETSA)” value [3] was “increase the thermal stability of the MTH1 protein”. The “expression of p38” value [4] was “significantly reduce the expression of p38”, the IC50 [5] was no less than 25 µM and the “stability in vitro compared to TH588” value [6] was “poorer stability”. For the same molecule, the IC50 [7] was no less than 25 µM, the IC50 ([8]; MCF7, 48 h) was 3.55 ± 0.27 µM and the “type of inhibition on MTH1 with respect to dGTP” value [9] was “competitive inhibition type”. The “blood drug concentration at 2, 3, and 4 h” value ([10]; 5mg/kg, 2, 3, and 4 h) was “below the detection limit”, the “blood drug concentration at 1 h” value ([10]; 5mg/kg, 1 h) was 1000 nM and the IC50 ([11]; 4T1, 48 h) was 5.9 ± 1.02 µM. For the same molecule, the IC50 [12] was 0.00316 ± 3e-05 µM, the “tumor growth inhibition rate” value ([13]; 200 mg/kg intraperitoneally every three days, 4T1 tumor) was 20.4% and the “body weight compared to the control group” value [13] was “no statistically significant differences”.
For `CNc1cc(NCCc2ccc(C)cc2)nc(N)n1` [MA−24], the IC50 ([1]; MTT assay, immortalized cells) was no less than 75 µM, the IC50 ([2]; MDA-MB-231, MTT assay, 48 h, cancer cell line) was 48.4 ± 0.68 µM and the “thermal stabilization of MTH1 (CETSA)” value [3] was “prominent thermal stabilization”. The “expression of cleaved-caspase 3 and cleaved PARP” value ([4]; 30 μM) was “upregulation of cleaved-caspase 3 and cleaved PARP”, the “expression of p38” value [4] was “significantly reduce the expression of p38” and the IC50 ([5]; MTT assay, immortalized cells) was no less than 75 µM. For the same molecule, the IC50 ([7]; MTT assay, immortalized cells) was no less than 75 µM, the IC50 ([8]; MCF7, MTT assay, 48 h) was 23.9 ± 0.95 µM and the inhibition at 200 µM ([8]; MCF7, MTT assay) was 99.6 ± 0.4%. The “DNA strand breaks (comet assay)” value [14] was “significantly increased DNA strand breaks”, the “type of inhibition on MTH1 with respect to dGTP” value [9] was “competitive inhibition type” and the IC50 ([11]; 4T1, MTT assay, 48 h, cancer cell line) was 14.8 ± 1.42 µM. The IC50 [12, 15] was 0.0104 ± 0.00028 µM, the “tumor growth inhibition rate” value ([13]; 60 mg/kg intraperitoneally every three days, 4T1 tumor) was 61.8% and the lung metastasis ([13]; MA−24 60 mg/kg i.p. every three days, 4T1 tumor) was “reduced lung metastasis”. For the same molecule, the “Ki67 expression / tumor cell proliferation in tumors” value [13, 16] was “moderate reduction in Ki67 expression” and the “body weight compared to the control group” value [13] was “no statistically significant differences”.
With `O=c1[nH]cc(F)c(=O)[nH]1` [5-FU, 5-fluorouracil] the “tumor growth inhibition rate” value ([13]; 30 mg/kg intraperitoneally every three days, 4T1 tumor) was 81.9%, the “toxicity: mouse mortality” value ([13]; 5-FU 30 mg/kg i.p. every three days) was “mouse mortality starting from the 16th day of treatment” and the “Ki67 expression / tumor cell proliferation in tumors” value [13, 16] was “inhibitory effect on tumor cell proliferation”.
For `CNc1cc(NCCc2ccc(F)cc2)nc(N)n1` [MA−25], the IC50 ([8]; MCF7, MTT assay, 48 h) was 82.3 ± 1.02 µM, the inhibition at 200 µM ([8]; MCF7, MTT assay) was 100 ± 0.1% and the IC50 [12, 15] was 0.01374 ± 0.0001 µM.
